In paper PMC6213047, “Design of Antibacterial Agents: Alkyl Dihydroxybenzoates against Xanthomonas citri subsp. citri” (International Journal of Molecular Sciences, 2018):
Entries after “also recorded” stand apart in the source; their conditions may differ.

How the values were obtained:
[1] = Partition coefficient log Po/w by HPLC (OECD 117); format: physicochemical; details: HPLC method, OECD 117, methanol:water 3:1
Method: The analyses were performed with the use of an isocratic flow in methanol: water (3:1) at 1.0 mL min^−1. We injected 20.0 μL and analyses were performed at 254 nm. We used as reference compounds thiourea, phenol, acetophenone, benzoic acid, benzene, toluene, biphenyl, fluoranthene and triphenylamine in order to construct the curve log K × log Po/w. The lipophilicity of alkyl dihydroxybenzoates was determined from their retention times and interpolation in linearity curve log K × log Po/w. We performed the analyses in duplicate.

[2] = system: FtsZ from Xcc; test: Inhibition of GTPase activity, continuous substrate regeneration assay; format: biochemical, Xanthomonas citri subsp. citri; details: compounds at MIC values, Xcc-FtsZ 5 μM, 400 μM GTP
Method: The cell division process is mediated by the formation of the Z ring, coordinated by GTP hydrolysis activity of FtsZ [33, 34, 35].
The evaluation of the inhibition of GTPase activity was measured by the characterization of the FtsZ from Xcc. This methodology is known as continuous assay of substrate regeneration and consists of the hydrolysis of guanosine triphosphate (GTP) in guanosine diphosphate (GDP) and inorganic phosphate. The GTP is regenerated by the enzyme pyruvate kinase which, in turn, converts the phosphoenol pyruvate (PEP) to pyruvate. The pyruvate produced by this reaction is reduced to lactate by lactate dehydrogenase, using NADH [64].
Reagent stocks were dispersed in Tris 50 buffer (1:1 tris:KCl at pH 7.9). We also prepared two mixtures: Mixture 1—magnesium chloride (MgCl2), pyruvate kinase/lactate dehydrogenase, phosphoenol-pyruvate, NADH and GTP, adding or not the test compounds to MIC values; and mixture 2—Xcc-FtsZ. The assay was performed in a 96-well plate, 75 μL of mixture 1 was pipetted into a well and incubated for 5 min at 30 °C; then 75 μL of mixture 2 was added and the readings started. A Biotek Synergy MX plate reader was used. The readings were performed every 5 s, at the wavelength of 340 nm at 30 °C, under constant stirring.
The total volume of 150 μL presented the following concentrations: 5 mM MgCl2; pyruvate kinase/lactate dehydrogenase 20 U mL^−1; 2 mM phosphoenol-pyruvate; 1 mM NADH; 400 μM GTP; Xcc-FtsZ 5 μM.

[3] = system: X. citri subsp. citri strain 306 (IBSBF 1594); test: MBC, REMA plates replicated to Petri dishes; format: cell-based, Xanthomonas citri subsp. citri; details: Xanthomonas citri; Petri dishes from REMA plates, 29 °C, 24 to 48 h; read-out: MBC
Method: The minimal bactericidal concentration (MBC) was determined by observing the bacterial growth in Petri dishes transferred from the REMA plates.
The antibacterial activity of alkyl dihydroxybenzoates and the determination of minimum inhibition concentration (MIC) were performed by the fluorimetric method Resazurin Microtiter Assay (REMA) with some modifications. An overnight culture of X. citri subsp. citri strain 306 (IBSBF 1594) was grown in 20 mL in Nitrogen Yeast Glycerol (NYG) at 29 °C in constant agitation of 180–200 rpm. After 12 h, the Xcc inoculum was dispersed in NYG medium and distributed into a 96 well microtiter plate to a final volume of 100 μL per well (10^5 CFU per well). Stock solutions of tested compounds at 10 mg mL^−1 were prepared in dimethyl sulfoxide (DMSO) and dispersed in NYG medium to obtain 1% DMSO and the final compound concentration range of 0.78–100 μg mL^−1. The negative control was constituted of 100 μL culture medium. In addition, the copper oxychloride was tested as a comparison to alkyl dihydroxybenzoates and kanamycin (20 μg mL^−1), which was used as a control antibiotic. The plate was subsequently incubated at 29 °C for 12 h, and 15 μg mL^−1 freshly prepared resazurin solution in water was added to each well, and the plate was incubated for 2 h. The fluorescence was determined on a Synergy H1 (BioTek, Winooski, VT, USA) microplate reader using the excitation and emission filters at wavelengths of 530 and 590 nm respectively. After the REMA assay, the minimum bactericidal concentration (CBM) assay was performed using a 96-pin stainless steel plate replicator, accurately transferring the wells from the REMA plate to Petri dishes Petri dishes were incubated in oven B.O.D. at 29 °C for 24 to 48 h. The experiments were performed in triplicate.

[4] = system: Xanthomonas citri subsp. citri; test: Growth curve of Xcc (OD 600 nm); format: cell-based; details: MIC and ½ MIC, 72 h
Method: According to the growth curves of the positive control (PC) and vehicle control (DMSO), it was observed that Xcc reaches the maximum growth phase in a period of 15 h. […] The early growth inhibition (lag phase), which happens in the first hours of contact (period of the first cellular divisions) can be a dynamic process. […] This can be explained because the compounds have bacteriostatic action; that is, as the time passes, the cells become able to recover and restart doubling. Another important finding is that the lag phase consists in the cell adaptation to the new medium conditions and the bacterial population is smaller in relation to the exponential phase facilitates the action of the compounds in the first hours (Figure 1).
An isolated colony of Xanthomonas citri subsp. citri was inoculated in NYG medium for 12 h at 29 °C. After this, the optical density (OD 600 nm) was measured and adjusted to ~0.1. […] Optical density reading was measured on a Synergy H1-BioTek plate reader every 30 min for 72 h. The growth curves were plotted with GraphPad Prism software. At the same time, the degradation assay was performed, solubilizing the compounds in DMSO, which were later incorporated in NYG medium. Later, we scanned the compounds to measure the absorbance values from 210 to 700 nm, and the maximum lambda value of each compound was selected after scanning. After that, punctual readings were carried out every 30 min for 72 h.

| Structure (SMILES) | chromatographic logP [1] | effect on GTPase activity of FtsZ [2] | MBC [3] | effect on Xcc growth curve [4] |
| --- | --- | --- | --- | --- |
| CCCCCCCOC(=O)c1ccc(O)cc1O [Compound 4] | 5.1 | inhibition of FtsZ GTPase activity; also recorded: decay in the GTPase activity of FtsZ | 25 µg/mL | delay in the exponential phase |
| CCCCCCCOC(=O)c1cc(O)ccc1O [Compound 16] | 5 | inhibition of FtsZ GTPase activity; also recorded: decay in the GTPase activity of FtsZ | 25 µg/mL | delay in the exponential phase |
| CCCCCCCOC(=O)c1ccc(O)c(O)c1 [Compound 28] | 4.3 | inhibition of FtsZ GTPase activity; also recorded: decay in the GTPase activity of FtsZ | 50 µg/mL | delay in the exponential phase |
